Values quoted from earlier work as cited in patent publication US11878005B2, “Formulations of deferasirox and methods of making the same” (AustinPx, LLC, priority 2015, dated 2024).

Columns and labels:
[1] = not given; remark: listed apart in the source

For `O=C(O)c1ccc(-n2nc(-c3ccccc3O)nc2-c2ccccc2O)cc1` [DFX, Deferasirox], the reported water solubility (25° C.) is listed as 400 µg/mL, the pH dependent solubility (acidic media) is listed as “insoluble in acidic media” and the “food effect on exposure” value ([1]; iron overload patients, administered with a high fat meal) is listed as “two-fold higher exposure”. The “total DFX dose recovered in the feces as unchanged drug” value ([1]; steady state (7-day dosing)) was 84%.
